From ChEMBL document CHEMBL1201862, “PubChem BioAssay data set” (2004)
Activity calls are given as the source filed them.

Tests used:
[1] = test system: BJ; experiment: growth inhibition of engineered Ras-driven BJ cells – cell-based, alamar blue fluorescence, cherrypicked samples, dose response (AID 2631); format: functional; conditions: Homo sapiens;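 further: confirmatory dose-response assay in RAS-dependent BJ fibroblasts engineered with TERT, LT and ST, with cytotoxicity read by fluorescence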
[2] = HCT116 cell viability decrease, GSK3B pretreatment – CellTiter-Glo, IC50, dose response (AID 1117339); format: functional; conditions: HCT-116
[3] = cytotoxicity toward Colo320 cells – cell-based, CellTiter-Glo luminescence, IC50, dose response (AID 1117334); format: functional; conditions: COLO 320
[4] = cytotoxicity toward HCT116 cells – cell-based, CellTiter-Glo luminescence, IC50, dose response (AID 1117332); format: functional; conditions: HCT-116
[5] = alpha-synuclein stem-loop luciferase translation blockers – H4 neuroglioma cells, luminescence, confirmation (AID 1988); format: functional, cell-based
[6] = target: T1, Replicative DNA helicase DnaB (Mycobacterium tuberculosis, UniProt P9WMR3); experiment: DnaB intein splicing inhibitors, dose response, biochemical, cell-free fluorescence (AID 449749); format: functional
T1 sequence (P9WMR3 whole entry): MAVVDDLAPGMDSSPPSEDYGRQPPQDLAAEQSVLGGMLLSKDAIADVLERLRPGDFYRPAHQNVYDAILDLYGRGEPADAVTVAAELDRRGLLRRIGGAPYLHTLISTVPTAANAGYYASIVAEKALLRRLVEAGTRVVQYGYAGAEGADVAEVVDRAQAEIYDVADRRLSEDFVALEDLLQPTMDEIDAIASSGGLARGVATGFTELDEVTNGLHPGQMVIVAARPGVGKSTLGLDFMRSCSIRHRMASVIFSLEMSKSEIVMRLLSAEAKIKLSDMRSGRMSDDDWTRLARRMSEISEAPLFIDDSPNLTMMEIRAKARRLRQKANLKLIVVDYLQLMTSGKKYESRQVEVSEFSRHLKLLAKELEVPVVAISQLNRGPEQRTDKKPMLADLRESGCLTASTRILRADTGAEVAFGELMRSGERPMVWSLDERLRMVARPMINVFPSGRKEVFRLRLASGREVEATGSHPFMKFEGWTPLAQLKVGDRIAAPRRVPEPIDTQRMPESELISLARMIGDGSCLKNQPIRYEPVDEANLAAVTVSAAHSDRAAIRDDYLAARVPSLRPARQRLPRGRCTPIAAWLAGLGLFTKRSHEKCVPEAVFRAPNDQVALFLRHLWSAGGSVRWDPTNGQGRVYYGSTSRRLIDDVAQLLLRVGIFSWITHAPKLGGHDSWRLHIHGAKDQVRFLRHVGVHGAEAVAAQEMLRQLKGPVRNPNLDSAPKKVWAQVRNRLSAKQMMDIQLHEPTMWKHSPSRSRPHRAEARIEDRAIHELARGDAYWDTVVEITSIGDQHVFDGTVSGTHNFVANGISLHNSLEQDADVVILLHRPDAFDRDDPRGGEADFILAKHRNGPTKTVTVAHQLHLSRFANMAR

[7] = target: Serine/threonine-protein phosphatase PP1-alpha catalytic subunit (Homo sapiens, UniProt P62136); experiment: inhibition of protein phosphatase 1 activity – biochemical, fluorescence, dose response (AID 2394)
Chain of Serine/threonine-protein phosphatase PP1-alpha catalytic subunit (P62136 whole entry): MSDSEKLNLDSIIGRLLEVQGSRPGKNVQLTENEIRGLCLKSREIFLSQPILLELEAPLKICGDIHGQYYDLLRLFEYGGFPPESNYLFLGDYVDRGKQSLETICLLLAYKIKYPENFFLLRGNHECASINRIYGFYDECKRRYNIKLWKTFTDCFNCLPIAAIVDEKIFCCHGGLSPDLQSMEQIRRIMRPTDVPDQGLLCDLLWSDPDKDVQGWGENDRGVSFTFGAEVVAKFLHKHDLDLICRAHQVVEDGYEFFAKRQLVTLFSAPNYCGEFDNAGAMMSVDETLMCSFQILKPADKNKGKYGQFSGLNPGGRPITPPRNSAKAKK

[8] = target: T2, Mannose-6-phosphate isomerase (Homo sapiens, UniProt P34949); experiment: MPI enzyme activity inhibition – biochemical, fluorescence intensity, coupled assay, primary screen (AID 1209)
T2 sequence (P34949 whole entry): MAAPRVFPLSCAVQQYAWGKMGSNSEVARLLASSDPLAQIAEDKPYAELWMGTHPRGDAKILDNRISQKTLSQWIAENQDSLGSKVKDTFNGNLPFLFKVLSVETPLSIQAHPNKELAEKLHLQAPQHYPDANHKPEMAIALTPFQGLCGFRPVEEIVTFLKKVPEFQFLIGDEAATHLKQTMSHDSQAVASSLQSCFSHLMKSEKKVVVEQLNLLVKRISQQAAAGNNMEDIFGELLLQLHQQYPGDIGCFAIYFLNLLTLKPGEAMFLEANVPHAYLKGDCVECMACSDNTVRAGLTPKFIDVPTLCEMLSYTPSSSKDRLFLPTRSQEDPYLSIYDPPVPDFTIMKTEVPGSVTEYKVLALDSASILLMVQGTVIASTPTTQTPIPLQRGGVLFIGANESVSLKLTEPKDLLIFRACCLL

[9] = target: T3, Sentrin-specific protease 8 (Homo sapiens, UniProt Q96LD8); experiment: inhibition of human SENP8 cleavage activity – biochemical, luminescence, SAR follow-up (AID 504501); format: functional
T3 sequence (Q96LD8 whole entry): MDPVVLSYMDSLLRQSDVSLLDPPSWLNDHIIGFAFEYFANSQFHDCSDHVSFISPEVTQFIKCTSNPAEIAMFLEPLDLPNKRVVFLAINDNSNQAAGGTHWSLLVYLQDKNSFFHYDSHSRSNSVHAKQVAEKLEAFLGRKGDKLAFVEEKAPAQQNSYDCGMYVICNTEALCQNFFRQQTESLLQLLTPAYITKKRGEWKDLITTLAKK

[10] = target: T4, Caspase-3 (Homo sapiens, UniProt P42574); experiment: SAR Analysis of small molecule inhibitors of Sentrin-specific proteases (SENPs) using a Caspase-3 Selectivity assay. [Related pubchem assays (depositor defined):AID2540, AID2599, AID434973, AID489001]; format: functional
T4 sequence (P42574 whole entry): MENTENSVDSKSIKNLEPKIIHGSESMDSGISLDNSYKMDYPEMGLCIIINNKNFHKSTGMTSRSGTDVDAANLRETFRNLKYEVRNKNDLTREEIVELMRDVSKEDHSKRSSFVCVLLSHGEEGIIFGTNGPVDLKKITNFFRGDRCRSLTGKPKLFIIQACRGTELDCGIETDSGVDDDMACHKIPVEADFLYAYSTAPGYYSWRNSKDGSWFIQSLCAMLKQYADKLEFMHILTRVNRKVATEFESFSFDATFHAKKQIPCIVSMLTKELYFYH

[11] = target: T5, Alkaline phosphatase, tissue-nonspecific isozyme (Homo sapiens, UniProt P05186); experiment: TNAP enzyme inhibition by screening hits, dose response, selectivity assay for mouse IAP inhibitor project, biochemical, human TNAP, uHTS hits (AID 488906); format: functional
T5 sequence (P05186 whole entry): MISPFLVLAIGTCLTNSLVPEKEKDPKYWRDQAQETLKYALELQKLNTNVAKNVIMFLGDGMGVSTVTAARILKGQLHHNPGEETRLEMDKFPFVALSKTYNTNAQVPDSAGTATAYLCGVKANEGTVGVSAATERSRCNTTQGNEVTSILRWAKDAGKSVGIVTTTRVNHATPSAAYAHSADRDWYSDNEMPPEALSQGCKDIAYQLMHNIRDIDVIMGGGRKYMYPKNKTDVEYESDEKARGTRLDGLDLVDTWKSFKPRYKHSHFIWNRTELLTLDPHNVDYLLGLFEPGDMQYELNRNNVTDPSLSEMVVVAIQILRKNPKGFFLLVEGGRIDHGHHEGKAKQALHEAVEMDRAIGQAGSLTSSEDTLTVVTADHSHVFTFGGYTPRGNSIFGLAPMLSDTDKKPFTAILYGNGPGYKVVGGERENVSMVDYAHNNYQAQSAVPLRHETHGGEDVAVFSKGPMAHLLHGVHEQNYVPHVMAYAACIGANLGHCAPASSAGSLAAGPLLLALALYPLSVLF

[12] = target: Intestinal-type alkaline phosphatase (Homo sapiens, UniProt P09923); experiment: activation of human intestinal alkaline phosphatase – biochemical, dose response (AID 488873); format: functional
Chain of Intestinal-type alkaline phosphatase (P09923 whole entry): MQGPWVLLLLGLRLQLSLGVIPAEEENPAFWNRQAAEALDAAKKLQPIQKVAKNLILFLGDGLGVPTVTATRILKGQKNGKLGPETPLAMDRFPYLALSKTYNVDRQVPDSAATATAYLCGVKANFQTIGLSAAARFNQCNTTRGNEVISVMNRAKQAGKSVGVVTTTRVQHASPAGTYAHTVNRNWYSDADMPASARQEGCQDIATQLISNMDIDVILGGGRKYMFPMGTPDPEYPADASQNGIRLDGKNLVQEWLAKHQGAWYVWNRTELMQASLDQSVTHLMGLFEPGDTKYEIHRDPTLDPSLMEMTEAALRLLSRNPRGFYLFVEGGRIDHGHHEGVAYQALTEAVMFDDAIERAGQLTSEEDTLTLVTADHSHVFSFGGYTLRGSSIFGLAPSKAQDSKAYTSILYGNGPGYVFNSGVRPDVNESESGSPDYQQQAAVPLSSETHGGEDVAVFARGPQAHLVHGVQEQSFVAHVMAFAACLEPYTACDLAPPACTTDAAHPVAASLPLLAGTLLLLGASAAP

[13] = target: T2, Mannose-6-phosphate isomerase; experiment: MPI inhibition at elevated mannose 6-phosphate – biochemical, fluorescence intensity, high mannose 6-phosphate, primary screen (AID 1220)

For `Cc1cc2nc3ccc(N(C)C)cc3[s+]c2cc1N` [TOLONIUM CHLORIDE], the EC50 [1] was 0.491 µM (inconclusive), the IC50 [2] was 1.69 µM (active) and the IC50 [3] was 0.987 µM (active). For the same molecule, the IC50 [4] was 2.78 µM (active), the EC50 [5] was 7.13 µM (active) and the AC50 [6] was 77.1 µM (active).
With `CCCOc1cc2c(C#N)c(N3CCCC3)nc(N)c2c(N)n1` the IC50 [7] was > 67 µM (not active).
With `Oc1ccc(/C=N/Nc2cc(N3CCCC3)nc(N3CCCC3)n2)cc1O` the IC50 [8] was > 50 µM (not active), the IC50 [9] was > 99 µM (inactive) and the IC50 [10] was > 99 µM (inactive). The IC50 [11] was > 100 µM (inactive), the EC50 [12] was > 100 µM (inactive) and the IC50 [13] was > 50 µM (not active).
